Test [1] relates to TTX-sensitive sodium channels. Type of test: cell-based, human.
Test [2] has as its system AD-iENP-derived neurons. Put plainly: pTAU (AT8) ICC in AD-iENP-derived neurons, AD drug testing. Type of test: cell-based, human. As to conditions: AD-iENP-derived neurons (AD1, APOE4/E4), treated for 2 days at 7 days after cortical differentiation; vs DMSO. The procedure: General neural differentiation was examined using differentiation media [Neurobasal, B27 supplement, 1% NEAA, 2 mM glutamine, 1 mM sodium pyruvate (Invitrogen), 300 μg/ml dbcAMP, 50 μM ascorbic acid (Sigma), 20 ng/ml BDNF, 20 ng/ml GDNF, 50 ng/ml NGF (Peprotech)], while specific neuronal differentiation were examined using cortical neuronal differentiation media, dopaminergic neuronal differentiation media, and PNS neuronal differentiation media [cortical neuronal differentiation media: Neurobasal, N2 supplement, B27 supplement (Invitrogen), 100 ng/ml SHH, 125 ng/ml Noggin, 250 ng/ml DKK1, 10 ng/ml BDNF, 10 ng/ml bFGF (R&D), 2 μM XAV939, 100 nM LDN93189, 10 μM SB431542, 200 μM ascorbic acid, 200 μM dbcAMP (Sigma); dopaminergic neuronal differentiation media: DMEM/F12, N2 supplement (Invitrogen), 20 ng/ml BDNF, 200 ng/ml SHH, 100 ng/ml FGF8P (R&D), 200 μM ascorbic acid (Sigma); PNS neuronal differentiation media: DMEM/F12, N2 supplement (Invitrogen), 3 μM CHIR99021, 10 μM SU5402, 10 μM DAPT, 200 μM dbcAMP]. For AD drug testing, AD- and control-iENPs were subjected to cortical differentiation. At 7 days after differentiation, cells were treated with SB415286, 1-Azakenpaullone (Selleckchem), or DMSO (Sigma) for 2 days. […]
The ICC procedure was performed as previously described. […] Signals were recorded using a Zeiss microscope and Spot software. […]

Test [3] has as its system FBs infected with virus encoding the 6 or 7TF combinations.
Test [4] relates to HD-iENPs. Put plainly: γH2AX ICC (DNA damage) in HD-iENPs. Type of test: cell-based, human. As to conditions: vs vehicle (DMSO).
For test [5], the system named is HD-iENP-derived neurons. Put plainly: γH2AX ICC (DNA damage) in HD-iENP-derived neurons. Type of test: cell-based, human. The settings on record: neuronal derivatives of HD-iENPs; vs vehicle (DMSO).

“Also recorded” adds a separate entry of the source.

For the compound `NC1=N[C@H](O)[C@H]2[C@H]3O[C@]4(O)O[C@@H]([C@@H](O)[C@@]2(N1)[C@@H]4O)[C@]3(O)CO` [TTX, tetrodotoxin], in test [1], the “inward Na+ currents” value is listed as “could be blocked” and the “sodium channel-mediated inward currents” value is given as “blocked”.
Turning to `O=C1Cc2c([nH]c3ccc(Br)cc23)-c2ncccc2N1` [1-Aza, 1-Azakenpaullone], the “pTAU aggregation / pTAU expression” value in test [2] is given as “significantly reduced”.
Still for that read-out and setting: to `O=C1NC(=O)C(c2ccccc2[N+](=O)[O-])=C1Nc1ccc(O)c(Cl)c1` [SB415286] belongs “significantly reduced”.
For RepSox, the “efficiency of iENP-6F generation” value in test [3] was “significantly improved”.
`CCNC(=O)[C@H]1O[C@@H](n2cnc3c(N)nc(NCCc4ccc(CCC(=O)O)cc4)nc32)[C@H](O)[C@@H]1O` [CGS21680]: the “γH2AX expression (DNA damage)” value in test [4] and in test [5] was “significantly decreased; also recorded: decreased DNA damage” in each case.

Values taken from patent US11339405B2, “Kit and method for producing induced embryonic neural progenitors” (priority 2017, dated 2022).
